Data taken from patent US20060111447A1, “Inhibiting progressive cognitive impairment” (priority 2002, published 2006).
Read-outs that look alike come from different tables or passages of the source.

Assays:
PGE2 = settings: mice, same brain, nimesulide 1500 mg/kg of diet for three months
clinical = settings: human, po, 100 mg twice daily
Protocol: A tolerability study was performed in elderly human subjects (Aisen et al., 2002, Neurology 58(7):1050-1054).

complement ClqB = settings: in vivo; cited from earlier work
γ-secretase [1] = settings: CHO-APPswe cells, 0.1 micromolar, 24 hours
Aβ40 [2] = settings: CHO-APPswe cells, 0.1 micromolar, 24 hours
Protocol: (§1) The amount of amyloid β peptides produced was measured by an ELISA assay from BioSource (Camarillo, Calif.). Samples were diluted 1:10 in buffer (0.05% (v/v) Tween-20, 1 mM Pefabloc protease inhibitors) followed by centrifugation for 20 minutes at 4° C. Total Aβ40 or Aβ42 were measured by sandwich ELISA following the manufacturer's instructions.

Aβ42 [3] = settings: CHO-APPswe cells, 0.1 micromolar, 24 hours
Protocol: as §1

γ-secretase [4] = test system: γ-secretase
Protocol: (§2) FIG. 11A-B. CHO cells were transfected with APPswe and LacZ (open bars) or with APPswe and hCOX-2(filled bars), as in FIG. 10A-C.
CHO cells were transfected with APPswe and LacZ (open bars) or with APPswe and hCOX-2 (filled bars), as in the preceding Section 11, and γ-secretase and Aβ42 levels were measured.

[5] = cited from earlier work
in vivo = settings: B6SJ1, mouse, brain relative to serum, oral, 1500 mg/kg of diet, level of nimesulide in the brain relative to serum levels, mice, nimesulide 1500 mg/kg of diet for three months, brain parenchyma
Aβ42 [6] = test system: Aβ42
From the text: as §2

Aβ40 [7] = settings: CHO cells with APPswe and hCOX-2, nimesulide concentrations down to 10^−12 M
From the text: FIG. 10A-C. […] (C) Aβ42 levels in CHO cells transfected with APPswe and LacZ (open bars) or with APPswe and hCOX-2 (filled bars). Data are expressed as means±S.E.M. (percent of control LacZ transfection from three independent studies).
Using an adenovirus vector, hCOX-2 was transfected and expressed in CHO cells which had been stably transfected with APPswe (see above).

[8] = mice
sAPPα = sAPPα levels in SY5Y neuroblastoma cells (6E10 immunoreactivity, Western blot); assay type: cell-based; settings: 1 μM and 5 μM
[9] = CHO-APPswe cells transfected with hCOX-2, 10^−9 molar

For `CS(=O)(=O)Nc1ccc([N+](=O)[O-])cc1Oc1ccccc1` [nimesulide, 4-nitro-2-phenoxymethanesulfonanilide], the “decrease of PGE2 content” value (PGE2) was “approximately 50%”, the concentration at 24 weeks (clinical; brain) was about 1 µM and the concentration at 24 weeks (clinical; serum) was about 10 µM. For the same compound, the “effect on hCOX-2 induced increase of ClqB levels in the brain” value (complement ClqB) was “able to block that increase”, the “inhibition of γ-secretase activity” value (γ-secretase [1]) was “approximately 40%” and the “decrease of the amount of Aβ40” value (Aβ40 [2]) was 20-25%. The “decrease of the amount of Aβ42” value (Aβ42 [3]) was 20-25%, the “effect on hCOX-2 mediated increase of γ-secretase activity” value (γ-secretase [4]; [9]) was “decreased to control levels” and the “additional decrease of γ-secretase levels” value (γ-secretase [4]; both hCOX-2 and LacZ-transfected CHO-APPswe cells, 10^−6 molar) was 10-15%. For the same compound, the “tolerability, long term treatment” value ([5]; clinical study, up to 104 weeks) was “well tolerated”, the “cognitive benefit in AD patients” value ([5]; twelve-week clinical trial) was “no cognitive benefit was observed” and the “tolerability in AD patients” value ([5]; twelve-week clinical trial) was “well tolerated”. The Kp at 3 months (in vivo) was about 0.1, the “effect on hCOX-2 increased Aβ42 concentration” value (Aβ42 [6]; CHO-APPswe cells transfected with hCOX-2, 10^−6 molar) was “decreased to essentially control levels” and the “effect on hCOX-2 increased Aβ42 concentration” value (Aβ42 [6]; [9]) was “slightly decreased”. The “effect on hCOX-2 mediated increase in Aβ40 levels” value (Aβ40 [7]) was “virtually nullified”, the necropsy findings ([8]; nimesulide 1500 mg/kg of diet (50 mg/kg per day) for 3 months) was “did not demonstrate any gross alterations or renal or intestinal abnormalities” and the tolerability ([8]; nimesulide 1500 mg/kg of diet for 3 months) was “well tolerated”.

In the case of `CS(=O)(=O)c1ccc(C2=C(c3ccccc3)C(=O)OC2)cc1` [Rofecoxib], the “levels of sAPPα relative to controls (6E10 immunoreactivity)” value (sAPPα) is reported as “decreased”.
